A short description of data set [1]: properties of the separated and purified substance (solubility). In kind it is physicochemical. The text has this: Here, the properties of 3,5-dihydroxy-4-methoxybenzyl alcohol, which was separated and purified, will be described. […] It was confirmed that the 3,5-dihydroxy-4-methoxybenzyl alcohol was a phenolic compound as illustrated in FIG. 8.
Data set [2] is described as follows: antioxidant capacity by the ORAC method (Fluorescein, AAPH). It counts as biochemical. How it is done:
The 3,5-dihydroxy-4-methoxybenzyl alcohol can be separated and purified by the following operation. First, Trolox (Wako) or a test sample of 0.05 mL dissolved in a mixed solution of 0.075 mol/L phosphoric acid buffer solution 2.3 of 5 mL, 6.3×10^−7 mol/L Fluorescein (fluorescent probe) of 0.3 mL, and 7% (w/v) methylated β-cyclodextrin (Wako) was warmed for 10 minutes at 37° C.
1.28×10^−1 mol/L2,2′-azobis(2-amidinopropane)dihydrochloride (AAPH, Wako), which has been preliminarily warmed at 37° C., was added by 0.3 mL. For example, while stirring with a stirrer, a fluorescence intensity (excitation wavelength: 493 nm, fluorescence wavelength: 515 nm) was measured for every 10 seconds and up to 5,000 seconds by a spectrofluorophotometer (FP-6500 , JASCO, Tokyo).
An antioxidant activity is indicated by length of period (for example, the horizontal axis in FIG. 5) during which a measured fluorescence value (the vertical axis in the same drawing) at the start of measurement is maintained. The longer the period, the stronger the antioxidant activity is.
Methods for measuring an antioxidant substance in a food product have been variously reported. However, all the methods have a drawback and an advantage, and therefore the method has not been standardized or determined as an official method (confirmation of validity of an analysis value). However, in the United States of America, a supplement and a beverage with an ORAC value have already been on the market. This trend is becoming a world standard. Accordingly, in this working example, the antioxidative potency is measured by the ORAC method.
A research conference that studies on employing the ORAC method as an official method (Antioxidant-Unit Research Association) has already been founded in Japan. The ORAC method has advantages in that both a soluble sample and a liposoluble sample can be measured and the above-described any organic solvent fractions can be measured. […]

Data set [3] deals with cell line (C3A) in a liver. Briefly: oxidation of DPPP-labeled hepatocyte culture (C3A) by AAPH. It counts as cell-based. To be noted: cultured for 5 days with the substance, compared with cell without the substance. How it is done: FIG. 12 illustrates the principle of the fluorescence of the diphenyl-1-pyrenlphosphine (DPPP). Using the fluorescent dye, the degree of oxidation of a cell line (C3A) in a liver was observed.
A cell where the 3,5-dihydroxy-4-methoxybenzyl alcohol according to the present invention had been added was cultured for 5 days. The cell labeled by DPPP was oxidized by 2,2′-azobis (2-methylpropionamidine)dihydrochloide, and then the fluorescence intensity of the DPPP in each cell was measured. […] It was confirmed that the antioxidant substance, 3,5-dihydroxy-4-methoxybenzyl alcohol, reduced the oxidation (see FIG. 13).

The test system of data set [4] is normal human LDL. The data set is described as follows: metal oxidation of normal human LDL by copper sulfate, quantitated by TBARS method. It counts as biochemical. How it is done:
When normal human LDL is oxidized by copper sulfate, 3,5-dihydroxy-4-methoxybenzyl alcohol was added, and the degree of oxidation of the LDL was quantitated by a TBARS method (see FIG. 11). […] The Lag-time refers to a period where a rise of a curve is not observed. It is determined that, as the time increases, antioxidant activity occurs. However, the lag-time was extended by dose dependency. The lag-time was 2 hours for addition of 270 μM, 4 hours for addition of 360 μM, and 5 hours for addition of 450 μM and 540 μM.

Molecules are shown by their SMILES. Entries after “also recorded” stand apart in the source; their conditions may differ.

As to `COc1c(O)cc(CO)cc1O` [3,5-dihydroxy-4-methoxybenzyl alcohol], the solubility result in data set [1] is “show lipid solubility and water solubility”. Besides, the “ORAC value relative to that of L(+)-ascorbic acid” value in data set [2] is “three times”. In data set [2] (length of period during which the fluorescence value is maintained), the “antioxidant capacity / antioxidant activity observed by the ORAC method” value was “high antioxidant activity was observed; also recorded: high antioxidant capacity between those of a chlorogenic acid and L(+)- the ascorbic acid”. Moreover, in data set [2] (synthesized product), the ORAC value was 1.47±0.40 μmoITE/μmol. Further, the “fluorescence intensity of DPPP / oxidation of C3A cell” value in data set [3] was “concentration dependence and low fluorescence intensity; also recorded: significantly reduced oxidation of a C3A cell; also recorded: showed an antioxidant capacity in a dose-dependent manner”. The “lag-time of LDL oxidation” value in data set [4] (addition of 270 μM) was 2 h; in data set [4] (addition of 360 μM) it was 4 h; in data set [4] (addition of 450 μM), 5 h; in data set [4] (addition of 540 μM) it was 5 h; in data set [4] (substance added at 180 μM), “lag-time was not observed”. Further, in data set [4] (copper sulfate, TBARS), the “effect on metal oxidation of the LDL” value was “reduced the metal oxidation of the LDL; also recorded: showed an antioxidant capacity in a dose-dependent manner”.

The record behind these values is patent US9012513B2, “Antioxidant, antioxidant composition and production method therefor” (Watanabe Oyster Laboratory Co., Ltd., priority 2011, dated 2015).
